# Source: patent US6737383B1, “Herbicidal oxadiazolidines” (priority 1999, dated 2004)
# Tests used:
# velvetleaf = assay: Test B pre/postemergence velvetleaf; type: in vivo, Abutilon theophrasti
# Outline: (§1)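 Response is a visual 0-to-10 score relative to untreated plants, where 0 means no effect and 10 means complete control, taken twelve to sixteen days after application. Treatments went onto soil at planting and onto foliage of 1- to 4-leaf plants, using a surfactant-containing non-phytotoxic solvent.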
# blackgrass = assay: Test B pre/postemergence blackgrass; type: in vivo, Alopecurus myosuroides
# Outline: as §1
# bedstraw = assay: Test B pre/postemergence bedstraw; type: in vivo, Galium aparine
# Outline: as §1
# morningglory = assay: Test B pre/postemergence morningglory; type: in vivo, Ipomoea hederacea
# Outline: as §1
# duck salad = assay: Test B flood test duck salad; type: in vivo, Heteranthera limosa
# Outline: (§2)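 Read-out is a visual response score from 0 (no effect) to 10 (complete control), assigned by comparison with untreated controls. Treatment was applied at the 2-leaf stage, and plants stayed in the greenhouse for twelve to sixteen days before scoring.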
# corn = assay: Test B pre/postemergence corn; type: in vivo, Zea mays
# Outline: as §1
# surinam grass = assay: Test B pre/postemergence surinam grass; type: in vivo, Brachiaria decumbens
# Outline: as §1
# cocklebur = assay: Test B pre/postemergence cocklebur; type: in vivo, Xanthium strumarium
# Outline: as §1
# bamyardgrass = assay: Test B flood test barnyardgrass; type: in vivo, Echinochloa crus-galli
# Outline: as §2
# giant foxtail = assay: Test B pre/postemergence giant foxtail; type: in vivo, Setaria faberii
# Outline: as §1
# wild oat = assay: Test B pre/postemergence wild oat; type: in vivo, Avena fatua
# Outline: as §1
# soybean = assay: Test B pre/postemergence soybean; type: in vivo, Glycine max
# Outline: as §1
# crabgrass = assay: Test B pre/postemergence crabgrass; type: in vivo, Digitaria sanguinalis
# Outline: as §1
# wheat = assay: Test B pre/postemergence wheat; type: in vivo, Triticum aestivum
# Outline: as §1
# rape = assay: Test B pre/postemergence rape; type: in vivo, Brassica napus
# Outline: as §1
# smallflower flatsedge = assay: Test B flood test smallflower flatsedge; type: in vivo, Cyperus difformis
# Outline: as §2
# [1] = Postemergence, Rate 1000 g/ha, scale 0 to 10 (0 no effect, 10 complete control)
# [2] = Preemergence, Rate 62 g/ha, scale of 0 to 10 where 0 is no effect and 10 is complete control
# [3] = Preemergence, Rate 250 g/ha, scale 0 to 10, 0 is no effect, 10 is complete control
# [4] = Preemergence, Rate 500 g/ha, scale 0 to 10 (0 no effect, 10 complete control)
# [5] = Rate 125 g/ha, Postemergence, scale 0 to 10
# [6] = Rate 500 g/ha, Postemergence, scale 0 to 10
# [7] = Rate 1000 g/ha, Preemergence, scale 0 to 10 (0 no effect, 10 complete control)
# [8] = Preemergence, Rate 125 g/ha, 0 is no effect, 10 is complete control
# [9] = Rate 62 g/ha, Postemergence, scale of 0 to 10 where 0 is no effect and 10 is complete control
# [10] = Rate 62 g/ha, headed Pre-emergence (flood test species), scale 0 to 10 (0 no effect, 10 complete control)
# [11] = Rate 125 g/ha, Pre-emergence, flood test species, scale 0 to 10 where 0 is no effect and 10 is complete control
# [12] = Rate 250 g/ha, Pre-emergence, flood-test species, scale 0 to 10, 0 is no effect, 10 is complete control
# [13] = Rate 500 g/ha, headed Pre-emergence (flood test species), scale 0 to 10 (0 no effect, 10 complete control)
# [14] = Rate 1000 g/ha, Pre-emergence (as headed), scale 0 to 10
smiles,measurement,setting,value
CC(C)N(C(=O)n1oc(=O)n(C2CCCC(C(F)(F)F)C2)c1=O)c1ccc(F)cc1 (stereo not shown) [Compound 184],Velvetleaf plant response rating,velvetleaf; [1],2
same,Velvetleaf plant response rating,velvetleaf; [2],0
same,Velvetleaf plant response rating,velvetleaf; [3],2
same,Velvetleaf plant response rating,velvetleaf; [4],7
same,Velvetleaf plant response rating,velvetleaf; [5],1
same,"Plant response rating (0 to 10; 0 is no effect, 10 is complete control), Velvetleaf","velvetleaf; Rate 250 g/ha, Postemergence",1
same,Velvetleaf plant response rating,velvetleaf; [6],5
same,"Plant response rating, Velvetleaf",velvetleaf; [7],3
same,Blackgrass plant response rating,blackgrass; [1],7
same,Blackgrass plant response rating,blackgrass; [2],0
same,Blackgrass plant response rating (0 to 10 scale),blackgrass; [8],3
same,Blackgrass plant response rating,blackgrass; [3],5
same,Blackgrass plant response rating,blackgrass; [4],7
same,Blackgrass plant response rating,blackgrass; [9],0
same,Blackgrass plant response rating,blackgrass; [5],1
same,"Plant response rating (0 to 10; 0 is no effect, 10 is complete control), Blackgrass","blackgrass; Rate 250 g/ha, Postemergence",3
same,Blackgrass plant response rating,blackgrass; [6],4
same,"Plant response rating, Blackgrass",blackgrass; [7],7
same,Bedstraw plant response rating,bedstraw; [2],0
same,Bedstraw plant response rating (0 to 10 scale),bedstraw; [8],0
same,Bedstraw plant response rating,bedstraw; [3],2
same,Bedstraw plant response rating,bedstraw; [4],2
same,Bedstraw plant response rating,bedstraw; [9],0
same,Bedstraw plant response rating,bedstraw; [5],7
same,"Plant response rating (0 to 10; 0 is no effect, 10 is complete control), Bedstraw","bedstraw; Rate 250 g/ha, Postemergence",3
same,Bedstraw plant response rating,bedstraw; [6],6
same,"Plant response rating, Bedstraw",bedstraw; [7],2
same,Morningglory plant response rating,morningglory; [1],9
same,Morningglory plant response rating,morningglory; [2],0
same,Morningglory plant response rating (0 to 10 scale),morningglory; [8],0
same,Morningglory plant response rating,morningglory; [3],0
same,Morningglory plant response rating,morningglory; [4],0
same,Morningglory plant response rating,morningglory; [9],0
same,Morningglory plant response rating,morningglory; [5],6
same,"Plant response rating (0 to 10; 0 is no effect, 10 is complete control), Morningglory","morningglory; Rate 250 g/ha, Postemergence",6
same,Morningglory plant response rating,morningglory; [6],7
same,"Plant response rating, Morningglory",morningglory; [7],2
same,Ducksalad plant response rating,duck salad; [10],0
same,Ducksalad plant response rating,duck salad; [11],0
same,Ducksalad plant response rating,duck salad; [12],0
same,"Plant response rating, Ducksalad",duck salad; [13],0
same,Ducksalad plant response rating,duck salad; [14],0
same,Corn plant response rating,corn; [1],0
same,Corn plant response rating,corn; [2],0
same,Corn plant response rating (0 to 10 scale),corn; [8],0
same,Corn plant response rating,corn; [3],0
same,Corn plant response rating,corn; [4],0
same,Corn plant response rating,corn; [9],0
same,Corn plant response rating,corn; [5],0
same,"Plant response rating (0 to 10; 0 is no effect, 10 is complete control), Corn","corn; Rate 250 g/ha, Postemergence",0
same,Corn plant response rating,corn; [6],0
same,"Plant response rating, Corn",corn; [7],2
same,B. signalgrass plant response rating,surinam grass; [1],3
same,B. signalgrass plant response rating,surinam grass; [2],5
same,B. signalgrass plant response rating (0 to 10 scale),surinam grass; [8],5
same,B. signalgrass plant response rating,surinam grass; [3],8
same,B. signalgrass plant response rating,surinam grass; [4],8
same,B. signalgrass plant response rating,surinam grass; [9],0
same,B. signalgrass plant response rating,"surinam grass; Rate 125 g/ha, Postemergence, scale 0 (no effect) to 10 (complete control)",0
same,"Plant response rating, B. signalgrass","surinam grass; Rate 250 g/ha, Postemergence, scale 0 to 10, 0 is no effect, 10 is complete control",0
same,B. signalgrass plant response rating,"surinam grass; Rate 500 g/ha, Postemergence, scale 0 to 10, 0 no effect, 10 complete control",0
same,"Plant response rating, B. signalgrass",surinam grass; [7],5
same,Cocklebur plant response rating,cocklebur; [1],2
same,Cocklebur plant response rating,cocklebur; [2],0
same,Cocklebur plant response rating (0 to 10 scale),cocklebur; [8],0
same,Cocklebur plant response rating,cocklebur; [3],0
same,Cocklebur plant response rating,cocklebur; [4],2
same,Cocklebur plant response rating,cocklebur; [9],0
same,Cocklebur plant response rating,cocklebur; [5],0
same,"Plant response rating (0 to 10; 0 is no effect, 10 is complete control), Cocklebur","cocklebur; Rate 250 g/ha, Postemergence",0
same,Cocklebur plant response rating,cocklebur; [6],1
same,"Plant response rating, Cocklebur",cocklebur; [7],3
same,Barnyardgrass plant response rating,bamyardgrass; [10],0
same,Barnyardgrass plant response rating,bamyardgrass; [11],0
same,Barnyardgrass plant response rating,bamyardgrass; [12],0
same,"Plant response rating, Barnyardgrass",bamyardgrass; [13],6
same,Barnyardgrass plant response rating,"bamyardgrass; Rate 500 g/ha, listed under Postemergence (flood test species), scale 0 to 10",0
same,Barnyardgrass plant response rating,bamyardgrass; [14],3
same,Giant foxtail plant response rating,giant foxtail; [1],3
same,Giant foxtail plant response rating,giant foxtail; [2],0
same,Giant foxtail plant response rating (0 to 10 scale),giant foxtail; [8],9
same,Giant foxtail plant response rating,giant foxtail; [3],10
same,Giant foxtail plant response rating,giant foxtail; [4],10
same,Giant foxtail plant response rating,giant foxtail; [9],0
same,Giant foxtail plant response rating,giant foxtail; [5],0
same,"Plant response rating (0 to 10; 0 is no effect, 10 is complete control), Giant foxtail","giant foxtail; Rate 250 g/ha, Postemergence",0
same,Giant foxtail plant response rating,giant foxtail; [6],2
same,"Plant response rating, Giant foxtail",giant foxtail; [7],10
same,Wild oats plant response rating,wild oat; [1],5
same,Wild oats plant response rating,wild oat; [2],0
same,Wild oats plant response rating,wild oat; [3],0
same,Wild oats plant response rating,wild oat; [4],3
same,Wild oats plant response rating,wild oat; [5],0
same,"Plant response rating (0 to 10; 0 is no effect, 10 is complete control), Wild oats","wild oat; Rate 250 g/ha, Postemergence",0
same,Wild oats plant response rating,wild oat; [6],2
same,"Plant response rating, Wild oats",wild oat; [7],4
same,Soybean plant response rating,soybean; [1],4
same,Soybean plant response rating,soybean; [2],0
same,Soybean plant response rating (0 to 10 scale),soybean; [8],0
same,Soybean plant response rating,soybean; [3],0
same,Soybean plant response rating,soybean; [4],0
same,Soybean plant response rating,soybean; [9],1
same,Soybean plant response rating,soybean; [5],1
same,"Plant response rating (0 to 10; 0 is no effect, 10 is complete control), Soybean","soybean; Rate 250 g/ha, Postemergence",3
same,Soybean plant response rating,soybean; [6],3
same,"Plant response rating, Soybean",soybean; [7],0
same,Crabgrass plant response rating,crabgrass; [1],2
same,Crabgrass plant response rating,crabgrass; [2],0
same,Crabgrass plant response rating (0 to 10 scale),crabgrass; [8],5
same,Crabgrass plant response rating,crabgrass; [3],7
same,Crabgrass plant response rating,crabgrass; [4],9
same,Crabgrass plant response rating,crabgrass; [9],0
same,Crabgrass plant response rating,crabgrass; [5],0
same,"Plant response rating (0 to 10; 0 is no effect, 10 is complete control), Crabgrass","crabgrass; Rate 250 g/ha, Postemergence",0
same,Crabgrass plant response rating,crabgrass; [6],2
same,"Plant response rating, Crabgrass",crabgrass; [7],9
same,Wheat plant response rating,wheat; [1],3
same,Wheat plant response rating,wheat; [2],0
same,Wheat plant response rating,wheat; [3],0
same,Wheat plant response rating,wheat; [4],0
same,Wheat plant response rating,wheat; [5],2
same,"Plant response rating (0 to 10; 0 is no effect, 10 is complete control), Wheat","wheat; Rate 250 g/ha, Postemergence",2
same,Wheat plant response rating,wheat; [6],3
same,"Plant response rating, Wheat",wheat; [7],0
same,Rape plant response rating,rape; [1],3
same,Rape plant response rating,rape; [2],0
same,Rape plant response rating (0 to 10 scale),rape; [8],0
same,Rape plant response rating,rape; [3],0
same,Rape plant response rating,rape; [4],0
same,Rape plant response rating,rape; [9],0
same,Rape plant response rating,rape; [5],2
same,"Plant response rating (0 to 10; 0 is no effect, 10 is complete control), Rape","rape; Rate 250 g/ha, Postemergence",3
same,Rape plant response rating,rape; [6],6
same,"Plant response rating, Rape",rape; [7],0
same,S. Flatsedge plant response rating,"smallflower flatsedge; Pre-emergence, Rate 1000 g/ha, scale 0 to 10 (0 no effect, 10 complete control)",0
same,S. Flatsedge plant response rating,smallflower flatsedge; [10],0
same,S. Flatsedge plant response rating,smallflower flatsedge; [11],0
same,S. Flatsedge plant response rating,smallflower flatsedge; [12],0
same,S. Flatsedge plant response rating,"smallflower flatsedge; Rate 500 g/ha, Pre-emergence, flood test species, scale 0 to 10 (0 no effect, 10 complete control)",0
